This note sets out measurements from US20220017486A1, “DOCK1-INHIBITING COMPOUND AND USE THEREOF” (KYUSHU UNIVERSITY, NATIONAL UNIVERSITY CORPORATION, priority 2018, published 2022).

Common to all, as to assay type: cell-based
For data set [1], the system named is mouse lung carcinoma cell line (3LL cells). Nature of the data set: Cell invasion inhibition assay (Matrigel invasion chamber). As to conditions: in words. A digest of the protocol: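 Matrigel invasion chambers (8 μm pores); cells in serum-free DMEM above, 10% FCS DMEM below, compound in both, 0.2% DMSO final. 3LL (K-Ras G12C), PANC02 and MDA-MB-157 (Rac1 P29S) cultured 22 h (3LL, PANC02) or 48 h (MDA-MB-157) at 37° C. Invaded cells Diff-Quick-stained and counted; % invasion vs DMSO control, % inhibition = 100 − % invasion.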

In data set [2] the test system is mouse lung carcinoma cell line (3LL cells) and mouse pancreatic cancer cell line (PANC02 cells). As to the kind of experiment: Inhibition of macropinocytosis in cancer cells (TMR-dextran uptake). As to conditions: in words, 3LL and PANC02 cells. The procedure:
Therefore, this Pharmacological Test evaluated the inhibitory effect of the compounds of the present invention on macropinocytosis in a mouse lung carcinoma cell line (3LL cells) and a mouse pancreatic cancer cell line (PANC02 cells) as a target. Specifically, 150 μL of mouse lung carcinoma cell line (3LL) or mouse pancreatic cancer cell line (PANC02) (4×10^4 cells) was seeded on the glass portion of fibronectin-coated glass-bottom culture dishes. After 16-hour culture at 37° C., the medium was changed to DMEM (serum free), and cultured for another 24 hours to allow the cells to be serum-starved. Subsequently, the medium was changed to 2 mL of serum-free medium containing DMSO alone (control) or DMSO in which each test compound was dissolved, followed by culture for 1 hour for pretreatment. The final concentration of DMSO was adjusted to 0.2 mass %.
DMSO alone (control) or DMSO in which a predetermined concentration of each test compound was dissolved was added in the same manner as above to TMR-dextran (final concentration: 500 μg/mL)-containing DMEM (with 10 mass % FBS), and the thus-obtained medium (180 μL) was added to the cancer cells pretreated as above, followed by incubation at 37° C. for 1 hour. […] The macropinocytosis activity was measured based on the number of TMR-dextran spots per cell. […]

Data set [3] deals with CCL21-stimulated T cells (mouse spleen cells). As to the kind of experiment: T lymphocyte migration towards CCL21 (Transwell). As to conditions: in words, 2-hour incubation. The procedure:
In view of the above, the effect of RT-22 (Production Example 1A), which serves as a representative of the compounds of the present invention, on the lymphocyte migration was studied. Specifically, mouse spleen cells (1×10^7 cells/mL) were first precultured at 37° C. for 1 hour in 0.5 mass % BSA-containing RPMI-1640 (Transwell medium), to which DMSO alone or DMSO in which a predetermined concentration of each test compound was dissolved was added. Subsequently, 500 μL of Transwell medium containing 300 ng/mL of CCL21 and DMSO in which a predetermined concentration of each test compound was dissolved was added to a 24-well plate. Then, Transwell inserts (Corning, pore size: 5 μm) were placed in the wells, into which the precultured mouse spleen cells were loaded at 1×10^6 cells/100 μL.
After 2-hour incubation at 37° C., the cells that migrated to the lower chamber were collected and stained with PE-labeled anti-Thy1.2 antibody (53-2-1, BD Pharmingen) and APC-labeled anti-B220 antibody (RA-6B2, eBioscience). The percentage (%) of the migrated cells was calculated by dividing the number of Thy1.2^+ cells (T cells) in the lower chamber by the number of Thy1.2^+ cells (T cells) placed into the Transwell inserts.

The subject of data set [4] is T cells (mouse spleen cells). Nature of the data set: Viability of lymphocytes (propidium iodide, flow cytometry). As to conditions: in words, 1-hour culture. As for the experimental part:
Specifically, 1×10^6 mouse spleen cells were suspended in 100 μL of RPMI-1640 medium containing 0.5% BSA, and DMSO in which a predetermined concentration of each test compound was dissolved or DMSO alone was added thereto to a final DMSO concentration of 0.2%. After 1-hour culture at 37° C., 2 μL of a propidium iodide staining solution (BD Pharmingen) was added and incubated on ice for 30 minutes, followed by flow cytometry analysis. The percentage of the viable cells under each condition was calculated, considering negative cells to be viable cells.
(In general: A flow cytometer gives signals particle by particle.)

“Also recorded” adds a separate entry of the source.

As for `COC(=O)c1cc(S(=O)(=O)N2CCCC2)cn1CC(=O)c1ccc(-c2cccc(C(F)(F)F)c2)cc1` [RT-22, methyl 1-(2-oxo-2-(3′-(trifluoromethyl)-[1,1′-biphenyl]-4-yl)ethyl)-4-(pyrrolidin-1-yl-sulfonyl)-1H-pyrrole-2-carboxylate], the “percent cell invasion inhibition compared with TBOPP” value in data set [1] was “higher percent cell invasion inhibition than TBOPP; also recorded: higher than those of TBOPP”. Moreover, the “macropinocytosis activity in cancer cells” value in data set [2] is on record as “inhibitory effect on macropinocytosis activity”. Besides, the “migration of CCL21-stimulated T cells” value in data set [3] is recorded as “no effect”. Also, in data set [4], the “viability of T cells” value is listed as “no effect”.
